Converted amounts (≈) assume the structure as drawn. Bridge positions count the residues as written; N and C are the ends. Peptide text beside a SMILES is read from it. I, II: the chains in the order shown.

The results in this text go back to PMC6150245 (Molecules : A Journal of Synthetic Chemistry and Natural …, 2017).

Series [1] deals with C. albicans ATCC18804. Kind of series: Antifungal MIC, microdilution in RPMI 1640. It counts as cell-based, Candida albicans. To be noted: C. albicans ATCC18804, RPMI 1640, 48 h, 37 °C, peptides 128-1 µM, triplicate. The procedure: (§1) The minimum inhibitory concentrations (MIC) were determined following the Clinical and Laboratory Standards Institute (CLSI) recommendations. Antibacterial and antifungal activity tests were performed using the microdilution method. For initial screening, peptides were tested against C. albicans ATCC18804, E. coli ATCC25922, and S. aureus ATCC25923. Briefly, bacterial cells in MH broth (80 μL aliquots containing 1.5 × 10^7 CFU) were incubated with synthetic peptides (serial dilution from 512 to 1 μM) dissolved in Milli-Q water. After incubation for 24 h at 37 °C, the microtiter plates were analyzed visually by addition of resazurin. For the antifungal assays, the culture medium was RPMI 1640 buffered with L-glutamine (pH 7.2), 0.165 M morpholinepropanesulfonic acid (MOPS), and 2% glucose. Cell suspensions (final concentration of 1 × 10^3–2.5 × 10^3 CFU/mL) were inoculated on a microdilution plate previously prepared with serially diluted synthetic peptides (128–1 μM). The plates were incubated for 48 h at 37 °C. Each assay was performed in triplicates. Additionally, amphotericin B and fluconazole were used as the control drugs. MIC was defined as the lowest concentration of peptide at which no growth was detected.
A general note: Dilution methods test growth across graded concentrations, often in twofold steps.

Series [2] concerns S. epidermidis ATCC35984. It counts as cell-based, Staphylococcus epidermidis. As to conditions: for MIC: S. epidermidis ATCC35984, CAMHB, 24 h, 37 °C, duplicate; for MBC: S. epidermidis ATCC35984, sub-culture on MH agar, 99.9% death. The procedure: (§2) After confirming antibacterial activity, the peptides were tested against gram-positive and gram-negative multidrug-resistant bacteria, including strains of clinical origin. The peptides, p-BthTX-I, des-Lys^12/(p-BthTX-I)2, and Lys^13-(p-BthTX-I)2 were serially diluted (512–1 μM) in cation-adjusted BBL MH II broth (CAMHB; Becton, Dickson and Co., Sparks, MD, USA) as described by CLSI. Bacteria at 5.0 × 10^5 CFU/mL were added to the media and incubated for 24 h at 37 °C. […] Assays were performed in duplicates, and sterile broth was used as the negative control. To determine the minimal bactericidal concentration (MBC), 100 µL from each well of the MIC assay plates that inhibited bacterial growth were sub-cultured onto MH agar (MHA) plates. […] If the ratio of MBC/MIC was >4, the activity of the peptide was considered bacteriostatic, as described previously.

Series [3] in a line: Serum stability assay. It counts as in vitro ADME. As to conditions: 25% human male serum, 37 °C. The procedure:
Crude peptides were purified by semi-preparative HPLC on a Shimadzu system (Tokyo, Japan) using a C18 reversed phase column (10 × 250 mm, Phenomenex, Torrance, CA, USA). Solvent A contained 0.045% trifluoroacetic acid (TFA) in water. Elution was achieved using a linear gradient (5–35%) of solvent B (0.036% TFA in acetonitrile) for 120 min at 5 mL/min. The purity of the peptides was determined by analytical HPLC on a Shimadzu system using a C18 column (4.6 × 150 mm, Phenomenex, Torrance, CA, USA) with a linear gradient of solvent B (5–95%) for 30 min at 1 mL/min. Liquid chromatography-mass spectrometry (LC/MS) was performed using a C18 column (2.0 × 30 mm, Shimadzu) attached to analytical HPLC and an amaZon ion trap mass spectrometer (Bruker Daltonics) using ESI. Peptides were eluted using a linear gradient of solvent B (5–95%) for 15 min at 0.2 mL/min.
Peptide stability assays were performed in diluted serum as previously described with minor modifications. First, 2 mL of 25% human male serum was centrifuged at 3000× g for 10 min; the supernatant was collected and incubated for 15 min at 37 °C. Next, peptides were added to the serum to a final concentration of 100 µM. Then, 200 µL of samples were collected at different time points during the assays, which were performed in duplicate. Analyses were performed by LC/MS and analytical HPLC, as described above.

The test system of series [4] is E. coli ATCC25922. As to the kind of experiment: MIC, microdilution in MH broth (initial screening). As to conditions: 24 h, 37 °C, resazurin, triplicate. It counts as cell-based, Escherichia coli. The procedure: as §1
Series [5] concerns human red blood cells. As to the kind of experiment: Hemolysis assay. It counts as cell-based. To be noted: 1% (v/v) human erythrocytes in Tris-saline pH 7.4, 1 h, 37 °C, absorbance 405 nm, triplicate. The procedure:
Peptide hemolysis assays were performed as previously described by Castro et al.. Briefly, freshly prepared human red blood cells (RBCs) were washed three times with 0.01 M Tris-HCl (pH 7.4) containing 0.15 M NaCl (Tris-saline). A suspension of 1% (v/v) erythrocytes was made with packed RBCs resuspended in Tris-saline. Peptides were dissolved in Tris-saline at an initial concentration of […] and serially diluted in the same buffer to determine the concentration that triggered 50% hemolysis (HC50). As the positive control (100% lysis), 1% (v/v) Triton X-100 solution was used. After 1 h of incubation at 37 °C, the samples were centrifuged at 3000× g for 5 min. Then, 100 µL aliquots of the supernatant were transferred to 96-well microplates, and the absorbance was determined at 405 nm. The assay was performed in triplicates.

Series [6] deals with S. aureus ATCC25923. It counts as cell-based, Staphylococcus aureus. As to conditions: for MIC: S. aureus ATCC25923, CAMHB, 24 h, 37 °C, duplicate; for MBC: S. aureus ATCC25923, sub-culture on MH agar, 99.9% death. The procedure:
as §2

Series [7] concerns S. aureus SA16. It counts as cell-based, Staphylococcus aureus. As to conditions: S. aureus SA16 (MRSA); for MBC: sub-culture on MH agar, 99.9% death. The procedure: as §2
The subject of series [8] is S. aureus SA88. It counts as cell-based, Staphylococcus aureus. To be noted: for MIC: S. aureus SA88 (MRSA, daptomycin heteroresistant), CAMHB, 24 h, 37 °C, duplicate; for MBC: S. aureus SA88, sub-culture on MH agar, 99.9% death. The procedure:
as §2

The test system of series [9] is S. aureus SA33. It counts as cell-based, Staphylococcus aureus. To be noted: for MBC: S. aureus SA33, sub-culture on MH agar, 99.9% death. The procedure: as §2
Series [10] has as its system E. faecium VRE16. It counts as cell-based, Enterococcus faecium. As to conditions: for MIC: E. faecium VRE16 (vancomycin resistant), CAMHB, 24 h, 37 °C, duplicate; for MBC: E. faecium VRE16, sub-culture on MH agar, 99.9% death. The procedure: as §2
Series [11] has as its system E. faecium HSJRP8. It counts as cell-based, Enterococcus faecium. As to conditions: for MIC: E. faecium HSJRP8 (daptomycin resistant), CAMHB, 24 h, 37 °C, duplicate; for MBC: E. faecium HSJRP8, sub-culture on MH agar, 99.9% death. The procedure: as §2

As a reminder, the MIC is the smallest concentration in the dilution series that meets the test's criterion for growth inhibition. Broadly, the MBC is the lowest tested concentration that kills the bacteria rather than only halting them. High values mean weaker bactericidal potency, low ones greater bactericidal potency. Take `CC(C)C[C@H](NC(=O)[C@H](Cc1c[nH]cn1)NC(=O)[C@H](Cc1ccc(O)cc1)NC(=O)[C@H](CCCNC(=N)N)NC(=O)[C@H](Cc1ccc(O)cc1)NC(=O)[C@H](CCCCN)NC(=O)[C@@H](N)CCCCN)C(=O)N[C@@H](CCCCN)C(=O)N1CCC[C@H]1C(=O)N[C@@H](Cc1ccccc1)C(=O)N[C@@H](CSSC[C@H](NC(=O)[C@H](Cc1ccccc1)NC(=O)[C@@H]1CCCN1C(=O)[C@H](CCCCN)NC(=O)[C@H](CC(C)C)NC(=O)[C@H](Cc1c[nH]cn1)NC(=O)[C@H](Cc1ccc(O)cc1)NC(=O)[C@H](CCCNC(=N)N)NC(=O)[C@H](Cc1ccc(O)cc1)NC(=O)[C@H](CCCCN)NC(=O)[C@@H](N)CCCCN)C(=O)N[C@@H](CCCCN)C(=O)N[C@@H](CCCCN)C(=O)O)C(=O)N[C@@H](CCCCN)C(=O)N[C@@H](CCCCN)C(=O)O` [(p-BthTX-I)2]: the MIC in [1] was over 128 µM; in series [2] it was 16 µM (≈ 55.6 µg/mL); in series [4], 4 µM (≈ 13.9 µg/mL); in series [6] it was 512 µM (≈ 1780 µg/mL); in series [8], 256 µM (≈ 890 µg/mL); in series [10], 32 µM (≈ 111 µg/mL). The compound further displayed an MIC in series [11] of 8 µM (≈ 27.8 µg/mL). Further, the MBC in series [2] is reported as 64 µM (≈ 222 µg/mL); in series [6], 512 µM (≈ 1780 µg/mL); in series [7], 512 µM (≈ 1780 µg/mL); in series [8] it was 256 µM (≈ 890 µg/mL); in series [9] it was 512 µM (≈ 1780 µg/mL); in [10], over 512 µM. The MBC in series [11] is recorded as over 512 µM. In addition, the “Incubation time after which the peptide was completely degraded in human serum” value in series [3] (peptide 100 µM, analytical HPLC (C18) and LC/MS, duplicate) was 30 min. The “HC50 (peptide concentration that produced 50% hemolysis)” value in [5] was over 128 µM.
In the case of `CC(C)C[C@H](NC(=O)[C@H](Cc1c[nH]cn1)NC(=O)[C@H](Cc1ccc(O)cc1)NC(=O)[C@H](CCCNC(=N)N)NC(=O)[C@H](Cc1ccc(O)cc1)NC(=O)[C@H](CCCCN)NC(=O)[C@@H](N)CCCCN)C(=O)N[C@@H](CCCCN)C(=O)N1CCC[C@H]1C(=O)N[C@@H](Cc1ccccc1)C(=O)N[C@@H](CSSC[C@H](NC(=O)[C@H](Cc1ccccc1)NC(=O)[C@@H]1CCCN1C(=O)[C@H](CCCCN)NC(=O)[C@H](CC(C)C)NC(=O)[C@H](Cc1c[nH]cn1)NC(=O)[C@H](Cc1ccc(O)cc1)NC(=O)[C@H](CCCNC(=N)N)NC(=O)[C@H](Cc1ccc(O)cc1)NC(=O)[C@H](CCCCN)NC(=O)[C@@H](N)CCCCN)C(=O)O)C(=O)O` [des-Lys^12/Lys^13-(p-BthTX-I)2] (I: H-KKYRYHLKPFC-OH / II: H-KKYRYHLKPFC-OH; disulfide I:11-II:11), the MIC in series [1] is given as over 128 µM; in [2], 32 µM (≈ 94.8 µg/mL); in [4] it was 16 µM (≈ 47.4 µg/mL); in series [6] it was 128 µM (≈ 379 µg/mL); in series [7] (CAMHB, 24 h, 37 °C) it was 128 µM (≈ 379 µg/mL); in series [8], 256 µM (≈ 759 µg/mL). The MIC in series [9] (S. aureus SA33 (MRSA, tigecycline resistant), CAMHB, 24 h, 37 °C) was found to be 128 µM (≈ 379 µg/mL); in [10] it was 16 µM (≈ 47.4 µg/mL); in series [11] it was 8 µM (≈ 23.7 µg/mL). In addition, the MBC came to 32 µM (≈ 94.8 µg/mL) in [2]; 256 µM (≈ 759 µg/mL) in [6]; 128 µM (≈ 379 µg/mL) in series [7]; 512 µM (≈ 1520 µg/mL) in series [8]; 256 µM (≈ 759 µg/mL) in series [9]; 64 µM (≈ 190 µg/mL) in series [10]. The compound also registered an MBC in series [11] of 32 µM (≈ 94.8 µg/mL). Also, the “Incubation time in human serum after which further degradation products were observed” value in [3] (mass spectrometry, data not shown) is reported as 30 h. The “Incubation time in human serum after which the peptide remained intact (stable)” value in series [3] (product formed from (p-BthTX-I)2 100 µM, LC/MS and HPLC) worked out at 24 h. Besides, the “HC50 (peptide concentration that produced 50% hemolysis)” value in series [5] is over 128 µM.
